Laboratory results taken from patent US20150038575A1, “MELANOGENESIS-INHIBITORY CONSTITUENTS OF Ligusticum sinense” (priority 2013, published 2015).

Legend:
tyrosinase = test: Assay of tyrosinase activity (L-tyrosine substrate, absorbance at 475 nm); format: biochemical; settings: mushroom tyrosinase, pH 6.8, 37° C.
Description: The source of the tested tyrosinase was from mushroom, and the substrate of the tyrosinase was L-tyrosine. The experiment was performed by the method below. First, 40 μL of pH 6.8 phosphate buffer solution, 40 μL of various sample solution (samples in 0.07M pH6.8 phosphate buffer solution containing 0.1 vol % of DMSO), and 40 μL of tyrosinase (250 unit/mL, dissolved in pH 6.8 phosphate buffer solution at a concentration of 0.07 M) were sequentially and respectively added into 96-wells plate. The sample solutions above respectively contain the compounds II, III, and kojic acid. The group added with the sample solution containing kojic acid was used as positive control (PC). A group without adding the sample solution was used as control (C). The mixtures described above were thermostat at 37° C. for 10 minutes. Then, 80 μL of tyrosine solutions (0.4 mg/mL, dissolved in 0.07M pH6.8 phosphate buffer solution) were respectively added into each mixture and thermostat for another 20 minutes to perform reaction. The amount of the obtained product L-DOPA of each mixture was measured at 475 nm to get absorbance of each sample. Therefore, the tyrosinase activity was calculated by the formula below. Tyrosinase activity(%)=[(A−B)/(C−D)]×100 The symbol A above is the absorbance of groups containing a sample and tyrosinase. The symbol B above is the absorbance of groups containing a sample but not tyrosinase. The symbol C above is the absorbance of groups containing tyrosinase but not a sample.

[1] = tested on: B16-F10 murine melanoma cells; test: Viability test of B16-F10 murine melanoma cells (MTT assay); format: cell-based; settings: 72 hours; for cell viability: FIG. 8A
Description: In this test, B16-F10 murine melanoma cells (BCRC No. 60031) were used.
First, the B16-F10 murine melanoma cells were cultured in Dulbecco's Modified Eagle's Medium (abbreviated as DMEM, which contains 90% (v/v) DMEM, 10% (v/v) fetal bovine serum), and additionally added 1% (v/v) Penicillin-Streptomycin Solution. Then, the cells in the mediums were incubated under 5% CO2/air at 37° C. in 70% of humidity. The medium was exchanged every two days. When the cells grew to a density of 80-90%, the cells were treated by trypsin to desorb the cells from the walls of containers Next, haemocytometer (Neubauer Improved., Marienfeld, Germany) was used to count the number of the cells. Proper amount of cells were then transplanted into cell culture plates to prepare for cell viability tests.
Cell viability rate was determined by MTT assay. MTT assay was performed by using […] in the mitochondria of living cells to reduce yellow 3-(4,5-dimethylthiazol-2-yl)-2,5-diphenyl tetrazolium bromide (MTT) to purple formazan product. Therefore, the amount of the purple formazan product is proportional to the number of the living cells and thus can be determined by spectrophotomter.
In a 12-wells cell plate, 1×10^3 cells were implanted into each well and stayed for 24 hours to let the cells attach to the wail of the well. Then, the compounds I, II, Ill and arbutin (positive control; PC) were respectively added into each wells and cultured for 72 hours. Next, MTT dye (Applichem Co., Denmark) dissolved in 0.5 mg/ml PBS solution was added to each well to react for 2 hours. The obtained purple formazan product was dissolved in 400 μL of DMSO, and then the absorbance of the purple DMSO solution was analyzed by microplate reader to get the absorbance at 570 nm. The cell viability rate was determined by the formula below.
Cell viability rate (%)=(Absorbance of test group/absorbance of blank group)×100%

[2] = tested on: B16-F10 murine melanoma cells; test: Analysis of melanin content in B16-F10 murine melanoma cells (α-MSH stimulated); format: cell-based; settings: for melanin content in the melanoma cells: B16-F10 cells, 25, 50 and 100 μM, FIG. 8B; for melanin content in the melanoma cells / IC50: 100 nM α-MSH, 72 hours; for IC50: Mus musculus, B16-F10 cells, read-out: IC50 for inhibiting the melanogenesis; for inhibitory activity of melanogenesis: summary statement on the isolated compounds
Description: The melanin content in B16-F10 murine melanoma cells was analyzed by a modified Hosoi method disclosed in 1985 (Hosoi J, Abe E, Suda T, Kuroki T, Regulation of melanin synthesis of B16 mouse melanoma cells by 1 alpha, 25-dihydroxyvitamin D3 and retinoic acid. Cancer Res. 1985; 45(4):1474-8).
First, in a 12-wells cell plate, 1×10^3 cells were implanted into each well and stayed for 24 hours to let the cells attach to the wall of the well. Various concentrations (25, 50, and 100 μM) of the compounds I, II, III, and arbutin (positive control; PC) were respectively added into each wells, and 100 nM of α-melanocyte stimulating hormone (α-MSH) was subsequently adaded. The cells were cultured for 72 hours. After the treatment above, cells were washed by PBS, and then treated by trypsin to desorb the cells. 150 μL of 1N NaOH solution containing 10% DMSO was then added and heated in a 80° C. water bath for 1 hour. After cooling to room temperature, the samples were centrifuge at 5000 rpm for 10 minutes. The upper solution was transferred into a 96-wells plate and analyzed by a microplate reader at 405 nm. The absorbance at 405 nm for each sample was read to calculate the melanin content of each sample.

[3] = tested on: NHEKs in Leiden epidermal models (LEMs); test: Viability test of human epidermal skin equivalents (Leiden epidermal models, MTT); format: cell-based; settings: 24 hours exposure
Description: In this test, fresh mamma reduction surplus skin of a single individual (D002, Fitzpatrick skin type I/II) was used for isolation of normal human epidermal keratinocytes (NHEKs).
Leiden epidermal models (LEMs) were generated by seeding NHEKs on an inert filter insert. The NHEKs in LEMS were incubated overnight under submerged conditions in keratinocyte medium. Within four days, fetal bovine serum was gradually omitted and the NHEKs in LEMs were cultured serum-free at the air-liquid interface for 7 days, while culture medium was refreshed twice a week.
Viability assays were performed by adding 0,5 mL of 1 mg/mL MTT to each of the NHEKs in LEMs for 3h, after 24 hours exposure to the test articles (compounds II, III, and DMSO (negative control)). The precipitated blue formazan product was extracted from the cells within 2 hours with 0.5 mL isopropanol per well. The concentration of formazan was measured by determining the OD at 570 nm using a Tecan Infinite F50 microplate reader.

[4] = concentration of 10-100 μM, FIG. 8C

CCCC[C@@H]1OC(=O)[C@H]2CCCC[C@@H]12 [compound I, 3-Butylhexahydrophthalide]
inhibitory effect to the tyrosinase activity (tyrosinase): do not show obvious inhibitory effect
cytotoxicity to the B16-F10 murine melanoma cells [1]: did not have cytotoxicity
cell viability [1]: did not affect the cell viability
melanin content in the melanoma cells [2]: can decrease the melanin content
IC50 [2]: 100 ± 12.9 µM
inhibitory activity of melanogenesis [2]: have inhibitory activity of melanogenesis

CCCC[C@@H]1OC(=O)C2=CCCC[C@H]21 [compound II, Neocnidilide]
inhibitory effect to the tyrosinase activity (tyrosinase): do not show obvious inhibitory effect
cytotoxicity to the B16-F10 murine melanoma cells [1]: did not have cytotoxicity
cell viability [1]: did not affect the cell viability
melanin content in the melanoma cells [2]: can decrease the melanin content
IC50 [2]: 31.1 ± 6.8 µM
inhibitory activity of melanogenesis [2]: have inhibitory activity of melanogenesis
cytotoxicity to the NHEKs in the Leiden epidermal models [3]: did not have cytotoxicity
cell viability ([3]; 10 μM): 97%
cell viability ([3]; 100 μM): 92%
cell viability [3, 4]: did not affect the cell viability

C=CC(c1ccc(O)c(OC)c1)c1cc(/C=C/C(=O)O)cc(OC)c1O (stereo not drawn) [compound III]
inhibitory effect to the tyrosinase activity (tyrosinase): do not show obvious inhibitory effect
cytotoxicity to the B16-F10 murine melanoma cells [1]: did not have cytotoxicity
cell growth ([1]; at a concentration of 100 μM): slight tendency to inhibit cell growth
melanin content in the melanoma cells [2]: can decrease the melanin content
IC50 [2]: 78.9 ± 8.1 µM
inhibitory activity of melanogenesis [2]: have inhibitory activity of melanogenesis
cytotoxicity to the NHEKs in the Leiden epidermal models [3]: did not have cytotoxicity
cell viability ([3]; 10 μM): 98%
cell viability ([3]; 50 μM): 104%
cell viability ([3]; 100 μM): 106%
cell viability [3, 4]: did not affect the cell viability
